{
  "source": "patent US20030198662A1",
  "about": "“Transdermal administration of N-(2,5-disubstituted phenyl)-N'-(3-substituted phenyl)-N'-methyl guanidines” (priority 1999, published 2003)",
  "experiment": "Electrotransport drug flux in automated permeation cells (zero-current passive phase, then electrotransport phase)",
  "format": "in vitro ADME",
  "conditions": "aqueous donor solution about 15 mg/mL drug HCl salt, receptor Dulbecco's phosphate buffered saline pH 7.4",
  "protocol": "Automated permeation cells used for passive permeation studies were also used for the assessment of electrotransport drug flux. The donor compartment contained the silver anode while the receptor compartment contained the silver chloride cathode. The electrodes were connected to a Maccor power source. An aqueous donor solution containing about 15 mg/mL of the drug HCl salt was utilized. The receptor solution was Dulbecco's phosphate buffered saline ([…]) pH 7.4. The first 16 hours served as a zero current passive phase after which the power source was turned on. The electrotransport phase during which a current of 0.2 mA was supplied (to result in a current density of 0.1 mA/cm^2) lasted 24 hours. Receptor solution was automatically collected every 4 hours during the passive phase and every hour during the electrotransport phase, and analyzed for drug by HPLC. Flux, as μg/cm^2h, was calculated, as was the average steady-state flux, which included data points where delivery had reached a nearly constant value.",
  "data": [
    {"smiles": "CSc1cccc(N(C)C(=N)Nc2cc(SC)ccc2Cl)c1", "note": "[CNS 5161, N-(2-chloro-5-(methylthio)phenyl)-N′-(3-(methylthio)phenyl)-N′-methyl guanidine]", "values": [
      {"measurement": "Average steady-state flux during electrotransport", "setting": "current 0.2 mA, current density 0.1 mA/cm^2, 24 hours", "value": "53±2.5", "unit": "μg/cm^2h"},
      {"measurement": "Flux during zero-current passive phase", "setting": "initial 16 hours, zero current", "value": "about 0.02 μg/cm^2h"}
    ]}
  ]
}
